Laboratory results reported in patent US11535597B2, “Photoreactive ligands and uses thereof” (The Scripps Research Institute, priority 2017, dated 2022).
“Also recorded” adds a separate entry of the source.

Target: T1, α-galactosidase (GLA) (Homo sapiens, UniProt P06280)
T1 construct: endogenous in cells; host or cells: human cells (HEK293T; a subset of probes also in K562)
T1 sequence (P06280 32-429): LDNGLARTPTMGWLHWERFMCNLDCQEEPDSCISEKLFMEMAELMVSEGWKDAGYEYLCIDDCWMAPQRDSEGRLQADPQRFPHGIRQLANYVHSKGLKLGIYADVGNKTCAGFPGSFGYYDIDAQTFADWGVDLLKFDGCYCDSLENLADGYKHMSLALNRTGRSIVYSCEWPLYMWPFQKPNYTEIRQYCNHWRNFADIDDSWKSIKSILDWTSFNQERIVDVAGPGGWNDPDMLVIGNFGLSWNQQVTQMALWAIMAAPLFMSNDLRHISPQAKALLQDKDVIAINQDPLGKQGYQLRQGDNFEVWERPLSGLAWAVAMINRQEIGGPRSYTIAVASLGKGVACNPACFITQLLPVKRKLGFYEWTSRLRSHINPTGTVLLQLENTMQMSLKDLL
Assay: Mapping of FFF probe-modified peptides on α-galactosidase (GLA)
Format: binding
Details: near the active site and a secondary ligand binding site, respectively
Procedure: Preparation and analysis was adapted from methods previously reported. In brief, for global mapping of fragment probe-modified peptides, separate 10 cm dishes of cells were treated with probes (200-250 μM) in 3.0 mL of DMEM (serum-free) and (if applicable) competitor ligands, proteomes harvested and subjected to click chemistry conditions with either light or heavy isotopically labeled biotin-TEV-azide (10 μL of 5 mM stocks in DMSO, final concentration=100 μM), TCEP, ligand and CuSO4 as detailed above. The samples were allowed to react for 1 h at which point the samples were centrifuged (16,000 g, 5 min, 4° C.). The resulting pellets were sonicated in ice-cold methanol (500 μL) and the resuspended light- and heavy-labeled samples were then combined and centrifuged (16,000 g, 5 min, 4° C.). The pellets were then solubilized in PBS containing 1.2% SDS (1 mL) with sonication and heating (5 min, 95° C.). Samples were transferred to falcon tubes containing DPBS (5 mL), to which a 100 μL of streptavidin-agarose beads slurry was added. After incubation, the beads (3 hr) were pelleted by centrifugation (1,400 g, 3 min) and were washed (2×10 mL PBS and 2×10 mL water). The beads were transferred to eppendorf tubes with 1 mL DPBS, centrifuged (1,400 g, 3 min), and resuspended in PBS containing 6 M urea. To this was added 10 mM DTT (25 μL of a 200 mM stock in water) and the beads were incubated at 65° C. for 15 mins. 20 mM iodoacetamide (25 μL of a 400 mM stock in water) was then added and allowed to react at 37° C. for 30 mins with shaking. The bead mixture was diluted with 900 μL PBS, pelleted by centrifugation (1,400 g, 3 min), and resuspended in 200 μL 2M urea (DPBS) containing trypsin and CaCl2 as described above. The beads were separated from the digest by centrifugation (1,000 g, 1 min), washed (2×1 mL PBS and 2×1 mL water) and then transferred to fresh eppendorfs with 1 mL water. The washed beads were washed once further in 150 μL TEV buffer (50 mM Tris, pH 8, 0.5 mM EDTA, 1 mM DTT) by centrifugation (1,400 g, 3 min) and the resuspended in 150 μL TEV buffer. 5 μL TEV protease (80 μM) was added and the reactions were rotated overnight at 29° C. The TEV digest was separated from the beads by centrifugation (1,400 g, 3 min) and the beads were washed once with water (100 μL). The samples were then acidified to a final concentration of 5% (v/v) formic acid and stored at −80° C. prior to analysis.
The resulting probe-modified peptides were collected for MS analysis, which was performed as described above with differences in the salt bumps applied in the chromatographic gradients which in this case were 0%, 30%, 60%, 90% and 100% NH4OAc (500 μM). […] The isoTOP ratios for probe labeled peptides were quantified using the in-house software CIMAGE. […]

## C#CCCC1(CCC(=O)Nc2ccc(C3CCNCC3)cc2)N=N1 [probe 9, 3-(3-(But-3-yn-1-yl)-3H-diazirin-3-yl)-N-(4-(piperidin-4-yl)phenyl)propanamide]
  probe-modified peptides in GLA: aa 50-68; also recorded: aa 241-253
